# Data published in US20110070232A1, “Combination Therapy with an Antitumor Alkaloid” (Pharma Mar, S.A., priority 2008, published 2011).
# Where two headings read alike, the source gives them in different places.
# Experiments:
# [1] = system: UM-UC-3 tumors; format: in vivo, mice; conditions: mg/kg/day: PM00104 0.90 IV, cisplatin 5 IP, gemcitabine 180 IP, paclitaxel 15 IP
# Description: Female athymic nude mice (Harlan Sprague Dawley, Madison, Wis.) were utilized for all experiments. Animals were housed in ventilated rack caging with food and water ad libitum. The mice were acclimated for at least 5 days prior to tumor implantation with a tumor cell suspension.
# The tumor model used in these studies was UM-UC-3 cell line, which was obtained from the ATCC (Manassas, Va.).
# UM-UC-3 cells were grown in minimum essential medium (Eagle's) supplemented with 10% FBS, 1.5 g/L sodium bicarbonate, 0.1 mM non-essential amino acids, 1 mM sodium pyruvate, and 2 mM L-glutamine. Each animal was implanted SC on the right flank, using a trochar and 1 cc syringe, with 5×10^6 UM-UC-3 cells, from in vitro passage 17, in a 0.2 mL suspension of 50% Matrigel and 50% serum free medium, without antibiotics. Bacterial cultures were performed on aliquots of the cells prepared for implantation.
# Treatments were initiated on DPI 15.
# Tumor size measurements were recorded twice weekly from the treatment initiation until the termination of the study.
# Mean, standard deviation and standard error of the mean were determined for tumor volume for all animal groups at all assessments. Student's t test was performed on tumor volumes at each measurement day, including at the end of the study, to determine whether there were any statistically significant differences between combination treatment groups and single monotherapy treatment groups.
# [2] = system: AGS human gastric carcinoma cell line; assay: IC50 determination, MTS assay, 72 h (Example 1); format: cell-based; conditions: 72 hours of drug exposure
# Outline: (§1)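 Cells are seeded at 10,000 per well and allowed to attach for 24 h, then exposed to compound for 72 h. Viability is read by MTS/PMS, 4 h at 37 °C, with OD at 490 nm, and referenced to a time-0 plate. IC50 is averaged from two to four assays.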
# [3] = system: Hs746T human gastric carcinoma cell line; assay: IC50 determination, MTS assay, 72 h (Example 1); format: cell-based; conditions: 72 hours of drug exposure
# Outline: as §1
# [4] = system: HGC-27 human gastric carcinoma cell line; assay: IC50 determination, MTS assay, 72 h (Example 1); format: cell-based; conditions: 72 hours of drug exposure
# Outline: as §1
# [5] = system: A-549 (lung cancer) cell line; assay: IC50 determination, MIT (tetrazolium) assay, 72 h (Example 18); format: cell-based, human
# Description: (§2) Before plating, cell cultures were trypsinized and cell number estimated using an automated flow cytometer.
# (§3) Cells were harvested and seeded in 96 well microtiter plates at the appropriate cell density (5,000-10,000 cells) in 150 μL of media and incubated for 24 hours to allow the cells to attach before drug addition.
# (§4) After the incubation period (72 hours), 50 μL of MIT solution was added to each microtiter well and incubated for further 8 hours at 37° C. The culture medium was then removed and 50 μl, of DMSO were added to dissolve the MIT crystals. Optical densities were read at 540 nm on spectrophotometer microplate reader.
# (§5) IC50 values were calculated from an average of two to four assays for each of the test agents.
# [6] = system: NCI-H460 (lung cancer) cell line; assay: as above; format: cell-based, human; conditions: NCI-H460, 72 hours of drug exposure
# Description: as §2, §3, §4, §5
# [7] = system: MDA-MB-231 (breast cancer) cell line; assay: as above; format: cell-based; conditions: Homo sapiens; MDA-MB-231, 72 hours of drug exposure
# Description: as §2, §3, §4, §5
# [8] = system: MCF-7 (breast cancer) cell line; assay: as above; format: cell-based; conditions: Homo sapiens, MCF7; MCF-7, 72 hours of drug exposure
# Description: as §2, §3, §4, §5
SMILES,% Inhibition ([1]; day 15),% T/C on day ([1]; day 15),% Inhibition ([1]; day 20),% T/C on day ([1]; day 20),% Inhibition ([1]; day 22),% T/C on day ([1]; day 22),% Inhibition ([1]; day 26),% T/C on day ([1]; day 26),% Inhibition ([1]; day 29),% T/C on day ([1]; day 29),% Inhibition ([1]; day 34),% T/C on day ([1]; day 34),% Inhibition ([1]; day 40),% T/C on day ([1]; day 40),% Inhibition ([1]; day 43),% T/C on day ([1]; day 43),IC50 [7],IC50 [8],"IC50 ([5]; Homo sapiens, A549, 72 h)",IC50 ([6]; Homo sapiens),also measured
"N.N.[Cl][Pt][Cl] [Cisplatin, cisplatin]",−2.2%,102.2%,23.0%,77.0%,24.2%,75.8%,38.2%,61.8%,34.0%,66.0%,55.3%,44.7%,36.2%,63.8%,33.0%,67.0%,,,,,"IC50 [2]: 25.5 µg/mL; IC50 [3]: 39.2 µg/mL; IC50 [4]: 25.6 µg/mL; IC50 ([5]; A-549, 72 hours of drug exposure): 50000 nM; IC50 [6]: 25000 nM"
CC(=O)O[C@H]1C(=O)[C@@]2(C)[C@H]([C@H](OC(=O)c3ccccc3)[C@]3(O)C[C@H](OC(=O)[C@H](O)[C@@H](NC(=O)c4ccccc4)c4ccccc4)C(C)=C1C3(C)C)[C@]1(OC(C)=O)CO[C@@H]1C[C@@H]2O [paclitaxel],1.3%,98.7%,46.9%,53.1%,54.0%,46.0%,61.4%,,64.6%,,60.5%,,47.5%,52.5%,41.0%,59.0%,6 nM,70 nM,47 nM,12 nM,
COc1c(C)cc2c(c1O)[C@@H]1[C@@H]3Cc4c(OC(C)=O)c(C)c5c(c4[C@H](CNC(=O)/C=C/c4cccc(C(F)(F)F)c4)N3[C@@H](O)[C@H](C2)N1C)OCO5 [PM00104],−0.8%,100.8%,52.8%,47.2%,52.2%,47.8%,60.2%,39.8%,47.4%,50.4%,50.7%,49.3%,37.1%,62.9%,35.1%,64.9%,6 nM,1 nM,7.2 nM,7.2 nM,"IC50 ([2]; Homo sapiens, read-out: IC50): 0.00521 µg/mL; IC50 ([3]; Homo sapiens, read-out: IC50): 0.00534 µg/mL; IC50 ([4]; Homo sapiens, read-out: IC50): 0.00371 µg/mL"
"Nc1ccn([C@@H]2O[C@H](CO)[C@@H](O)C2(F)F)c(=O)n1 [Gemcitabine, gemcitabine]",,,,,,,,,,,,,,,,,24 nM,1.3 nM,0.5 nM,1 nM,
"O=c1[nH]cc(F)c(=O)[nH]1 [5-FU, 5-fluorouracil]",,,,,,,,,,,,,,,,,,,,,"IC50 ([2]; Homo sapiens, read-out: IC50): 0.532 µg/mL; IC50 ([3]; Homo sapiens, read-out: IC50): 5.46 µg/mL; IC50 ([4]; Homo sapiens, read-out: IC50): 0.434 µg/mL"
